In US4957926A, “Method of treating herpesviruses” (priority 1988, dated 1990):
Like-named read-outs stand apart in the source and are kept apart here.

Columns and labels:
[1] = system: Herpes Simplex Type II (Viral Strain HG52); test: Herpes Simplex Type II Plaque Reduction Assay; type: cell-based; conditions: for Plaque Count: replicate counts; for EC50: HSV type II
Excerpt: (§1) For testing the N-Bu-DNJ against HSV, the HSV Type II strain HG52 described by Timbury, J. Gen. Virol. 13, 373-376 (1971), and Davis et al., Analyst 110, 605-609 (1985), is useful. For testing against CMV, the prototype CMV ADl69 strain described, for example, by Tyms et al., J. Gen. Virol. 68, 1563-1573 (1987), and in U.S. Pat. No. 4,743,560, is useful. Another useful CMV strain is the Towne strain described by Glazer et al., Ann. Inter. Med. 91, 676-683 (1979).
(§2) Human embryo fibroblast cells (HEF) were grown in Eagles minimal essential medium supplemented with 7% fetal calf serum (FCS), 9 mM sodium bicarbonate and 7 mM HEPES buffer. In maintenance medium the supplements were adjusted to 2% FCS, 13 mM sodium bicarbonate and 14 mM HEPES. CMV, strain Towne, and HSV type II, strain […], were used in the following tests. CMV virus stocks were prepared and stored by technique as previously described by Tyms & Williamson, Nature 297, 690-691 […]. Herpes virus stocks were prepared and stored by technique as previously described by Davis et al., Analyst 110, 605-609 (1985). The HEF were human embryonic lung fibroblasts, strain MRC-5, as described by Tyms and Williamson, Nature 297, 690-691 (1982).
(§3) For plaque reduction assays, 24-well culture trays were seeded with HEF cells. Confluent monolayers were infected with virus to give initially about 100 plaque-forming-units (p.f.u.) per well. After a one hour absorption period the inocula were replaced by l.5ml of a maintenance medium incorporating 0.5% low gelling temperature agarose, supplemented with various concentrations of test compound. For tests with CMV, infected monolayers were fixed with 5% formalin in phosphate buffered saline (PBS) at 6-8 days post-infection and stained with 0.3% methylene blue after removal of the overlay; whereas, tests with HSV were conducted in the same manner but with the monolayer fixing at 2 days post infection. The mean plaque number was calculated from a multiple series of counts (e.g., duplicate, triplicate or quadruplicate), converted to a percentage of untreated controls and values plotted against the log10 drug concentration. The 50% effective dose (ED50) was determined from best line fits for the curves.
The mean plaque numbers determined on HEF cells exposed to varying amount of N-Bu-DNJ, N-Me-DNJ, N-He-DNJ, 2-deoxy-D-glucose and castanospermine were converted to percentage values (plaque count in presence of drug divided by mean value of untreated controls×100), and plotted as a function of drug concentration [drug (mM)].
The 50% effective dose (ED50)--that amount of drug needed to reduce plaque count by 50%--was calculated to give the following values: […]

HEF cells (strain MRC-5) [2] = type: cell-based, human
Description: Triplicate titer plates were seeded with human embryo fibroblast (HEF) cells (about 7.5×10^3 cells/well), and after 4 days of growth in the absence of presence of 2-deoxy-D-glucose and N-Bu-DNJ were counted and compared to a control without test compound.

[3] = system: Cytomegalovirus (Viral Strain Towne); test: Cytomegalovirus Plaque Reduction Assay; type: cell-based; conditions: for Plaque Count: replicate counts
Excerpt: as §1, §2, §3
In a similar manner, the Effective Dosage Values (ED50) were determined from the curves of FIG. 1. A least squares fit of the data of FIG. 1 to an equation of the form: y=mx+b gave the following values: […]
From these values, a 50% effective dose (ED50) was calculated to give the following values: […]

[4] = system: Cytomegalovirus (Viral Strain Towne); test: Yield Reduction Assay against infections with CMV (Towne strain); type: cell-based; conditions: for activity at 500 µM / activity at 2000 µM: read-out: % Virus Control
Description: Antiviral activities of N-Bu-DNJ and comparative test compounds against infections with CMV (Towne strain) were also measured by the yield reduction assay as follows:
HEF cells (MRC-5) were infected at high multiplicity of infection (about one p.f.u. per cell) and incubated with various concentrations of the test compounds for 5 and 6 days post infection. The level of infectious virus shed into the extracellular fluid was determined at 5 and 6 days by plaque assays as described above, using serial dilution of extracellular fluid to bring readings on scale.
In Table VI, to calculate plaque-forming units (PFU) of the maintenance medium overlayering HEF cells, the plaque count at the most sensitive dilution (from Table V) was multiplied by dilution value and then by 5 (0.2 ml sample volumes used in test) to give PFU (per ml maintenance medium). (e.g. calculation of drug control: 31×10^3 ×5=1.6×10^5 PFU).

HIV = conditions: Tyms et al., Lancet, 1987; cited from earlier work
HEF cells (strain MRC-5) [5] = test: HEF cell growth / monolayer appearance in HSV type II plaque reduction assay; type: cell-based, human
Description: as §3

[6] = Human betaherpesvirus 5, MRC5, 120 h
[7] = Human betaherpesvirus 5, MRC5, 144 h

## O=CC[C@@H](O)[C@H](O)[C@H](O)CO [2-Deoxy-D-glucose, 2-deoxy-D-glucose, reference compound]
[1]; 2.5 mM
  inhibitory effect on herpesvirus type II (in words): no inhibitory effect was observed
[1]; HEF, Table II, 2.5 mM, read-out: % Virus control
  activity at 2500 µM: ≥ 100%
[1]; HEF, Table II, 5.0 mM, read-out: % Virus control
  activity at 5000 µM: 77%
[1]; Table II, 2.5 mM
  Plaque Count Avg: 91
  Plaque Count: 94,88
[1]; Table II, 5.0 mM
  Plaque Count Avg: 69
  Plaque Count: 61,76
HEF cells (strain MRC-5) [2]
  inhibitory effect on growth of normal cells (in words): substantially inhibits the growth

## O[C@H]1[C@H](O)[C@@H](O)CN2CC[C@H](O)[C@H]12 [Castanospermine, castanospermine, reference compound]
[1]; HEF, Table II, 0.25 mM, read-out: % Virus control
  activity at 250 µM: 56%
[1]; HEF, Table II, 0.5 mM, read-out: % Virus control
  activity at 500 µM: 53%
[1]; HEF, Table II, 1.0 mM, read-out: % Virus control
  activity at 1000 µM: 42%
[1]; HEF, Table II, 2.0 mM, read-out: % Virus control
  activity at 2000 µM: 50%
[1]; HEF, Table II, 4.0 mM, read-out: % Virus control
  activity at 4000 µM: 36%
[1]; Table II, 0.25 mM
  Plaque Count Avg: 50
  Plaque Count: 46,54
[1]; Table II, 0.5 mM
  Plaque Count Avg: 48
  Plaque Count: 52,44
[1]; Table II, 1.0 mM
  Plaque Count Avg: 38
  Plaque Count: 21,55
[1]; Table II, 2.0 mM
  Plaque Count Avg: 45
  Plaque Count: 61,28
[1]; Table II, 4.0 mM
  Plaque Count Avg: 32
  Plaque Count: 33,32
[3]; Human betaherpesvirus 5, HEF, CMV, calculated from least squares fit of FIG. 1, read-out: 50% effective dose (ED50)
  EC50: 600 µM
[3]; Human betaherpesvirus 5, HEF, Table IV, 0.25 mM, read-out: % Virus control
  activity at 250 µM: 81%
[3]; Human betaherpesvirus 5, HEF, Table IV, 0.50 mM, read-out: % Virus control
  activity at 500 µM: 55%
[3]; Human betaherpesvirus 5, HEF, Table IV, 1.0 mM, read-out: % Virus control
  activity at 1000 µM: 30%
[3]; Human betaherpesvirus 5, HEF, Table IV, 2.0 mM, read-out: % Virus control
  activity at 2000 µM: 12%
[3]; Table IV, 0.25 mM
  Plaque Count Avg: 166
  Plaque Count: 146,191,184,144
[3]; Table IV, 0.50 mM
  Plaque Count Avg: 113
  Plaque Count: 108,112,122,111
[3]; Table IV, 1.0 mM
  Plaque Count Avg: 61
[3]; Table IV, 2.0 mM
  Plaque Count Avg: 25
[4]; 0.5 mM, 5 days HEF growth
  PFU: 2.1 × 10^4 PFU (per ml maintenance medium
[4]; 0.5 mM, 6 days HEF growth
  PFU: 2.3 × 10^4 PFU (per ml maintenance medium
[4]; 2.0 mM, 5 days HEF growth
  PFU: 2.3 × 10^3 PFU (per ml maintenance medium
[4]; 2.0 mM, 6 days HEF growth
  PFU: 1.8 × 10^3 PFU (per ml maintenance medium
[4]; [6]
  activity at 500 µM: 13%
  activity at 2000 µM: 1.4%
[4]; [7]
  activity at 500 µM: 6.2%
  activity at 2000 µM: 0.48%
HIV
  block of HIV growth (in words): found to block the growth of the AIDS-associated virus HIV

## OC[C@H]1NC[C@H](O)[C@@H](O)[C@@H]1O [DNJ, 1,5-dideoxy-l,5-imino-Dglucitol]
HIV
  block of HIV growth (in words): found to block the growth of the AIDS-associated virus HIV

## CCCCCCN1C[C@H](O)[C@@H](O)[C@H](O)[C@H]1CO [N-He-DNJ, Nhexyl deoxynojirimycin]
[1]; HEF, tested up to 1.1 mM, read-out: estimated ED50
  EC50: ~250 µM
[1]; HEF, Table III, 0.56 mM, read-out: % Virus Control
  activity at 560 µM: 31.4%
[1]; HEF, Table III, 1.12 mM, read-out: % Virus Control
  activity at 1120 µM: 15.7%
[1]; Table III, 0.56 mM
  Plaque Count Avg: 16
[1]; Table III, 1.12 mM
  Plaque Count Avg: 8
[1]; Table III, 2.25 mM
  Plaque Count: trace
[1]; Table III, 4.5 mM
  Plaque Count: none
[1]; Table III, 2.25 and 4.5 mM
  size of plaques compared to control test (in words): significantly reduced
[1]; up to 1.1 mM
  antiviral activity against HSV type II (in words): substantial antiviral activity
HEF cells (strain MRC-5) [5]; 0.56 and 1.12 mM
  HEF cell growth (in words): grew normally
HEF cells (strain MRC-5) [5]; 2.25 and 4.5 mM
  appearance of HEF cell monolayers (in words): looked thin
HEF cells (strain MRC-5) [5]; higher concentrations (above 1.1 mM)
  cell growth (in words): cell growth also was retarded

## CN1C[C@H](O)[C@@H](O)[C@H](O)[C@H]1CO [N-Me-DNJ, Nmethyl deoxynojirimycin]
[1]
  antiviral activity against HSV type II (in words): substantially reduce herpesvirus type II infection of HEF cells
[1]; HEF, amount of drug needed to reduce plaque count by 50%, read-out: 50% effective dose (ED50)
  EC50: 2800 µM
[1]; HEF, Table I, 0.28 mM, read-out: % Virus Control
  activity at 280 µM: ≥ 100%
[1]; HEF, Table I, 0.56 mM, read-out: % Virus Control
  activity at 560 µM: 99%
[1]; HEF, Table I, 1.12 mM, read-out: % Virus Control
  activity at 1120 µM: 88%
[1]; HEF, Table I, 2.24 mM, read-out: % Virus Control
  activity at 2240 µM: 50%
[1]; HEF, Table I, 4.48 mM, read-out: % Virus Control
  activity at 4480 µM: 18%
[1]; Table I, 0.28 mM
  Plaque Count Avg: 84
  Plaque Count: 72,95
[1]; Table I, 0.56 mM
  Plaque Count Avg: 77
  Plaque Count: 79,74
[1]; Table I, 1.12 mM
  Plaque Count Avg: 69
  Plaque Count: 63,74
[1]; Table I, 2.24 mM
  Plaque Count Avg: 39
  Plaque Count: 48,29
[1]; Table I, 4.48 mM
  Plaque Count Avg: 14
  Plaque Count: 9,19
